Data published in patent US5902789A, “Nasal administration of drugs” (Fisons Corporation, priority 1995, dated 1999).

Legend:
[1] = Example II irritation studies of nasal spray solutions without insulin (10 days); format: in vivo, human; settings: longer than 5 days, polysorbate-80 added to nasal spray solution
Experimental: Chronic irritation studies, i.e., longer than 5 days, using polysorbate-80 according to the present invention have also been carried out.
Studies were carried out to determine the effect on nasal irritation of the addition of varying amounts of polysorbate-80 to nasal spray solutions containing N-9. […] In each study ten normal subjects were treated with one squirt (about 0.15 ml) of the nasal spray solution three times a day for ten consecutive days. After administration, the subjects were questioned about any symptoms and findings recorded. The nasal passages were examined on the fifth and tenth days of treatment by an ENT ([…], nose and throat) specialist and findings recorded.
The nasal spray solutions used in the study comprised 1% of a mixture of polysorbate-80:N-9, 1:9, wt:wt; 0.5% of a mixture of polysorbate-80:N-9, 1:9, wt:wt; 0.25% of a mixture of polysorbate-80:N-9, 1:9, wt:wt; 1% of a mixture of polysorbate-80:N-9, 1:3, wt:wt; 0.5% of a mixture of polysorbate-80:N-9, 1:3, wt:wt; 0.25% of a mixture of polysorbate-80:N-9, 1:3, wt:wt; 0.1% N-9 or a saline placebo. All of the nasal spray solutions produced minor changes in nasal mucosa and minor symptomatic complaints but the number encountered with 0.5% P-80:N-9, 1:9, and 0.5% P-80:N-9:1:3 (4 out of 10 subjects in each group) most closely paralleled the saline placebo (7 out of 20 subjects).

[2] = cited from earlier work

**Q.** Which chronic irritation [1] does the source give for polysorbate-80 here?
**A.** The chronic irritation was “reduces chronic irritation”.

**Q.** For laureth-9, which “promotion of insulin absorption” value ([2]; 0.1% laureth-9, nasally) is on record?
**A.** The value was “only moderately effective”.

**Q.** What about the “absorption of nasally administered insulin” value ([2]; humans) of the same substance?
**A.** The value was “enhanced absorption”.

**Q.** And the “tolerability of nasal administration” value ([2]; laureth-9 at 0.1% by weight, nasally)?
**A.** The value was “tolerated by all subjects tested”.

**Q.** And the “nasal irritation accompanying administration” value ([2]; nasally administered insulin in humans, effects proportional to laureth-9 concentration)?
**A.** The value was “often accompanied by nasal irritation such as stinging, congestion and rhinorrhea”.
